In assay [1] the test system is bacterial strains. Nature of the assay: MIC at pH 3.5 in human and mouse urine. The format is cell-based.
In assay [2] the test system is E. coli. The experiment in a line: Broth microdilution MIC at incremental pH, E. coli. It is filed as cell-based. On the procedure:
MIC testing is conducted using the broth (Mueller Hinton Broth) microdilution procedures relevant to each organism group as established by the Clinical and Laboratory Standards Institute (CLSI; 3-7). MIC plates are prepared in accordance with CLSI (3-7). To prepare the test plates, automated liquid handlers are used to conduct serial dilutions and liquid transfers. Automated liquid handlers utilized in this study include the Multidrop 384 (Labsystems, Helsinki, Finland) and the Biomek 2000 (Beckman Coulter, Fullerton CA). The solution is diluted to desired pH using 1 M Citric Acid or 1 M NaOH buffer. A standardized inoculum of each test organism is prepared per CLSI methods (3, 5-7) to equal a 0.5 McFarland standard in the appropriate media followed by an additional 1:20 dilution (1:10 for anaerobes).
The plates are then inoculated with 10 μL of the diluted 0.5 McFarland suspension using the Biomek 2000 from low to high drug concentration, resulting in a final concentration of approximately 5×10^5 CFU/mL per well. An un-inoculated plate is incubated for the purpose of assessing solubility of the drug in the test media. The plates are stacked 3 to 4 high, covered with a sterile lid on the top plate, and incubated for 18 to 24 hours according to CLSI. The MIC is recorded as the lowest concentration of respective compound that inhibited visible growth of the organism.

In assay [3] the test system is Haemophilus influenzae. The experiment in a line: MIC at pH 3.5, CLSI, Mueller-Hinton broth. To be noted: 5 isolates. It is filed as cell-based.
The subject of assay [4] is Aspergillus fumigatus (ATCC13073). Nature of the assay: Individual mouse clinical signs (animal condition) in the Aspergillus fumigatus lung infection model (Example 24). It is filed as in vivo, BALB/c mice. More on the design: key: NAD = no abnormality detected.
Assay [5] relates to wild type P. aeruginosa (PAO1; K2732). Nature of the assay: Bacterial cytological profiling at pH 4, 5.5, 7 (Example 7), P. aeruginosa. The format is cell-based. To be noted: pH 7, 225 mg/mL. The method, then:
This bacterial cytological profiling (BCP) investigation uses methods and materials described previously by Nonejuie, P., Burkart, M., Poglianoa, K., Pogiano, J. (2013). Bacterial cytological profiling rapidly identifies the cellular pathways targeted by antibacterial molecules. Proc. Natl. Acad. Sci. U.S.A. 110(40):16169-16174. doi: 10.1073/pnas.1311066110.
For viable cell counts, cells are grown to OD600≈0.4 and diluted 1:1 into buffered or unbuffered media containing various compound concentrations. Samples are then collected and serially diluted (1:10) on a 96 well plate. Five microliters from each well are spotted on LB plates, incubated at 30° C., and viable cells are counted the next day.
Samples are collected at 10, 30, 120, and 240 min of exposure for viable cell count and imaging. For imaging, E. coli and S. aureus 200 μL of treated cells per time point are stained with 0.8 μg/mL FM4-64, 1.5 μg/mL DAPI, and 0.4 μM SYTOXGreen (Molecular Probes/Invitrogen). P. aeruginosa samples are stained 0.4 μM SYTOX Green, 28 μg/mL DAPI, and 1 μg/mL FM 4-64. Cells are transferred to an agarose pad (20% LB, 1% agarose) for imaging.
For Nu-3 and Nu-8 stocks (at pH 4, 5.5 and 7), stock concentration is 500 mg/mL. For pH 4, the stocks are prepared by dissolving Nu-3 in 25 mM citrate buffer and Nu-8 in 350 mM citric acid. […]

Setting [6] is: Part C, 1×10^3 conidia/animal, Nu-8 (10%), 3 doses, once daily for 3 days, aerosol, individual animals.
Where [7] appears, read: Part D, 1×10^2 conidia/animal, Nu-8 (10%), 5 doses, once daily for 5 days, individual animals.

1 molecule from patent publication US12030908B2, “Antimicrobial compounds, compositions, and uses thereof” (Lakewood Amedex, Inc., priority 2017, dated 2024) can be followed below.

“Also recorded” adds a separate entry of the source.

For `CCCCOP(=O)(O)OC[C@H]1O[C@@H](n2ccc(N)nc2=O)C[C@@H]1OP(=O)(O)OCCCC` [Nu-8, sodium ((2R,3S,5R)-5-(4-amino-2-oxopyrimidin-1(2H)-yl)-3-((butoxyoxidophosphor-yl)oxy)tetrahydrofuran-2-yl)methyl butyl phosphate], the “MICs in human and mouse urine” value in assay [1] is on record as “comparable to those of Nu-8 in Mueller Hinton broth”. Further, the MIC was 9.8 mg/mL in assay [2] (pH 1); 37.5 mg/mL in assay [2] (pH 3); 75 mg/mL in assay [2] (pH 4); over 75 mg/mL in assay [2] (pH 5); over 75 mg/mL in assay [2] (pH 7). In addition, the “Nu-8 MIC (mg/mL) at pH 3.5” value in assay [3] is 4.69-9.38 mg/mL. The “Animal Condition Day 1” value in assay [4] (Part A, 3 doses, once daily for 3 days, individual animals 19-24) is given as “Normal”; in assay [4] (Part A, 5 doses, once daily for 5 days, individual animals 25-30), “Normal”; in assay [4] (Part B, 3 doses, once daily for 3 days, individual animals 23-30), “NAD”; in assay [4] (Part B, single dose, individual animals 15-22), “NAD”; in assay [4] (setting [6]), “NAD”; in assay [4] (setting [7]), “NAD”. For the same molecule, the “Animal Condition Day 2” value in assay [4] (setting [6]) is reported as “Animal dull”; in assay [4] (setting [7]), “NAD”. Moreover, the results for the “Animal Condition Day 3” value in assay [4] (setting [6]) and in assay [4] (setting [7]) were “Animal dull; also recorded: Moribund” and “NAD”, respectively. For the same molecule, the “Animal Condition Day 4” value in assay [4] (setting [7]) is “NAD”. Also, the “Animal Condition Day 5” value in assay [4] (setting [7]) was “NAD”. Further, in assay [5], the cell growth entry is “slightly lower than that at pH 7 alone”. The cell permeability in assay [5] (10 min, not persistent) is about 37%.

As a reminder, the MIC is the smallest concentration in the dilution series that meets the test's criterion for growth inhibition.
